From publication PMC9861386, “N-Heterocyclic Carbene-Iridium Complexes as Photosensitizers for In Vitro Photodynamic Therapy to Trigger Non-Apoptotic Cell Death in Cancer Cells” (Molecules, 2023)
Like-named read-outs stand apart in the source and are kept apart here.

How the values were obtained:
T24 = assay: MTT cytotoxicity, 48 h; format: cell-based, human
Procedure: (§1) The in vitro cytotoxicity of iridium(III) complexes 4a–4g was first evaluated against cancer cell lines PC-3 (human prostate) and T24 (human bladder) and the non-cancerous NIH-3T3 cell line (murine fibroblasts) using colorimetric MTT tests after 48 h of treatment. The dimeric iridium precursor [IrCl(ppy)2]2 was used as reference and the results are summarized in Table S1 (Supplementary Materials) in the supporting information file. […] The complexes were also evaluated for their cytotoxicity towards healthy NIH-3T3 cells, giving access to the selectivity index (SI). […] No linear correlation between lipophilicity and anti-cancer activity was found for the iridium(III) complexes 4a–4g. For the following biological studies, we focused on the C1 series.
(§2) Table S1. Cytotoxic activity of iridium(III) NHC complexes 4a−4g expressed as GI50 (μM) values towards selected cancer and normal cell lines as determined by MTT assay (48 h).a Complex PC-3 T24 NIH3T3 SI (PC-3) SI (T24) […]
(§3) a GI50 values correspond to the concentration of complexes causing 50 % inhibition of cell growth.
(§4) Data were obtained from three independent experiments.
(§5) The cytotoxic effects of the NHC precursors, the imidazolium salts, which represents the potential hydrolysis and/or degradation products of the complexes, have been published before [SI-1, SI-2]. […]

PC-3 = assay: MTT cytotoxicity, 48 h; format: cell-based, human
Procedure: as §1, §2, §3, §4, §5

HeLa cervix cancer cells = assay: MTT cell viability, 72 h, dark or 458 nm irradiation; format: cell-based, human; settings: for GI50: 72 h, MTT
Procedure: (§6) For all biology experiments, the compounds were solubilized in DMSO to reach a final fixed concentration equal to 0.1% v/v to avoid cytotoxicity caused by DMSO [89]. The results are normalized to controls (0.1% v/v DMSO). Depending on the cell type, approximatively 1000 to 10,000 cells/cm^2 were seeded in 48-well plates for MTT, ATP and GSH assays and 60 mm Petri dishes for Western blots. Cells were allowed to attach overnight and then incubated for 4 h with the different complexes (in the dark), then irradiated for 10 min, followed by an incubation in the dark up to 72 h.
(§7) Irradiation was conducted using an in-house device: a series of blue light LEDs selected according to the absorption spectra of the compounds at a 458 nm wavelength with an emitted power of 9.6 watts. The absorbed energy, or irradiance, was measured at 458 nm with a Thorlabs Optical Power Meter PM100A at 5 and 10 cm distance between the cell layer and the light source and expressed as mW/cm^2.
(§8) A tetrazolium-based MTT reagent (3-(4,5-dimethylthiazol-2-yl)-2,5-diphenyltetrazolium bromide) was used to determine cell viability, as previously described. After 72 h of treatment at 37 °C and 5% CO2, cells were incubated with 25 μL MTT solution (5 mg/mL; Sigma-Aldrich) for 4 h. After solubilization with 500 μL of lysis buffer (DMSO), formazan was quantified by spectrophotometry with a microplate reader at 570 nm absorbance (ClarioSTAR, BMG LabTech, Champigny-sur-Marne, France). GI50 values corresponding to the concentration that caused 50% inhibition of cell proliferation were calculated from dose–response curves obtained by nonlinear regression analysis. All results were calculated from data obtained in at least three independent experiments.

T24 bladder cancer cells = assay: as above; format: cell-based, human; settings: for GI50: 72 h, MTT
Procedure: as §6, §7, §8

A549 lung cancer cells = assay: as above; format: cell-based, human; settings: for GI50: 72 h, MTT
Procedure: as §6, §7, §8

[1] = system: MCF7/FasR breast cancer cells; assay: as above; format: cell-based, human; settings: for GI50: 72 h, MTT
Procedure: as §6, §7, §8

[2] = system: PC-3 prostate cancer cells; assay: as above; format: cell-based, human; settings: for GI50: 72 h, MTT
Procedure: as §6, §7, §8

[3] = Octanol–water partition coefficient, shake-flask method; format: physicochemical; settings: n-octanol/water, UV absorbance 260 nm
Procedure: Lipophilicities of all complexes have been measured by the classical shake-flask method, using UV absorption. The Log p values range from -0.063 to 0.861 in increasing order –0.063 (4a), 0.035 (4d), 0.519 (4f), 0.581 (4c), 0.842 (4b), 0.847 (4e) and 0.861 (4g).
The octanol–water partition coefficients (P) of 4a to 4g were determined using a shake-flask method. Water (100 mL, distilled after milli-Q purification) and n-octanol (100 mL, Sigma-Aldrich, St. Louis, MO, USA, ACS spectrophotometric grade, ≥99%) were shaken together for 24 h to allow saturation of both phases. Stock solutions of the […] compounds (50 μM) were prepared in the aqueous phase and aliquots (1 mL) of each of these stock solutions were then added to an equal volume of the n-octanol phase. The resultant biphasic solutions were mixed for 1 h and then centrifuged (3000× g, 5 min) (Eppendorf Centrifuges 5415R and 5804R) to separate the phases. The concentrations of the complexes in the organic and aqueous phases were then determined using UV absorbance spectroscopy (260 nm). Log P was defined as the logarithm of the ratio of the concentrations of the studied complex in the organic and aqueous phases (Log P = Log {[Ir(org)]/[Ir(aq)]}; values reported are the means of at least two separate determinations).

[4] = system: panel of five cancer cell lines (T24, PC-3, MCF7, A549, HeLa); assay: MTT cell viability, 72 h, pooled over the cancer cell panel; format: cell-based, human
Procedure: as §6, §7, §8

[5] = GI50 non-irradiated / GI50 irradiated

CC(C)C[n+]1ccn2[c]1[Ir-3]13([c]4ccccc4-c4cccc[n+]41)([c]1ccccc1-c1cccc[n+]13)[c]1n(cc[n+]1CC(C)C)C2.F[P-](F)(F)(F)(F)F [Complex 4b]
GI50 (T24; MTT): 380 nM
SI (T24) (T24; NIH3T3 vs T24): 9.2
GI50 (PC-3; MTT): 510 nM
SI (PC-3) (PC-3; NIH3T3 vs PC-3): 6.9
GI50 (HeLa cervix cancer cells; 458 nm irradiation 10 min, read-out: GI50 HeLa Blue): 294 nM
PI HeLa (HeLa cervix cancer cells; [5]): 2.1
SI vs MC3T3, HeLa Blue (HeLa cervix cancer cells; blue light, GI50 MC3T3 / GI50 HeLa): 2.4
SI vs NIH, HeLa Blue (HeLa cervix cancer cells; blue light, GI50 NIH-3T3 / GI50 HeLa): 5.2
GI50 (HeLa cervix cancer cells; dark, read-out: GI50 HeLa Dark): 625 nM
SI vs MC3T3, HeLa Dark (HeLa cervix cancer cells; dark, GI50 MC3T3 / GI50 HeLa): 1.6
SI vs NIH, HeLa Dark (HeLa cervix cancer cells; dark, GI50 NIH-3T3 / GI50 HeLa): 3.1
GI50 (T24 bladder cancer cells; 458 nm irradiation 10 min, read-out: GI50 T24 Blue): 90 nM
PI T24 (T24 bladder cancer cells; [5]): 2.8
SI vs MC3T3, T24 Blue (T24 bladder cancer cells; blue light, GI50 MC3T3 / GI50 T24): 7.7
SI vs NIH, T24 Blue (T24 bladder cancer cells; blue light, GI50 NIH-3T3 / GI50 T24): 16.7
GI50 (T24 bladder cancer cells; dark, read-out: GI50 T24 Dark): 259 nM
SI vs MC3T3, T24 Dark (T24 bladder cancer cells; dark, GI50 MC3T3 / GI50 T24): 3.8
SI vs NIH, T24 Dark (T24 bladder cancer cells; dark, GI50 NIH-3T3 / GI50 T24): 7.5
GI50 (A549 lung cancer cells; 458 nm irradiation 10 min, read-out: GI50 A549 Blue): 84 nM
PI A549 (A549 lung cancer cells; [5]): 4.2
SI vs MC3T3, A549 Blue (A549 lung cancer cells; blue light, GI50 MC3T3 / GI50 A549): 8.4
SI vs NIH, A549 Blue (A549 lung cancer cells; blue light, GI50 NIH-3T3 / GI50 A549): 18.1
GI50 (A549 lung cancer cells; dark, read-out: GI50 A549 Dark): 354 nM
SI vs MC3T3, A549 Dark (A549 lung cancer cells; dark, GI50 MC3T3 / GI50 A549): 2.8
SI vs NIH, A549 Dark (A549 lung cancer cells; dark, GI50 NIH-3T3 / GI50 A549): 5.5
GI50 ([1]; 458 nm irradiation 10 min, read-out: GI50 MCF7 Blue): 53 nM
PI MCF7 [1, 5]: 4.0
SI vs MC3T3, MCF7 Blue ([1]; blue light, GI50 MC3T3 / GI50 MCF7): 13.3
SI vs NIH, MCF7 Blue ([1]; blue light, GI50 NIH-3T3 / GI50 MCF7): 28.7
GI50 ([1]; dark, read-out: GI50 MCF7 Dark): 211 nM
SI vs MC3T3, MCF7 Dark ([1]; dark, GI50 MC3T3 / GI50 MCF7): 4.6
SI vs NIH, MCF7 Dark ([1]; dark, GI50 NIH-3T3 / GI50 MCF7): 9.2
GI50 ([2]; 458 nm irradiation 10 min, read-out: GI50 PC-3 Blue): 71 nM
PI PC-3 [2, 5]: 3.6
SI vs MC3T3, PC-3 Blue ([2]; blue light, GI50 MC3T3 / GI50 PC-3): 9.9
SI vs NIH, PC-3 Blue ([2]; blue light, GI50 NIH-3T3 / GI50 PC-3): 21.4
GI50 ([2]; dark, read-out: GI50 PC-3 Dark): 257 nM
SI vs MC3T3, PC-3 Dark ([2]; dark, GI50 MC3T3 / GI50 PC-3): 3.8
SI vs NIH, PC-3 Dark ([2]; dark, GI50 NIH-3T3 / GI50 PC-3): 7.6
Log P [3]: 0.842
Average SI vs MC3T3, Blue light ([4]; GI50 MC3T3 / GI50 of all irradiated cancer cell lines): 8.3
Average SI vs NIH, Blue light ([4]; GI50 NIH-3T3 / GI50 of all irradiated cancer cell lines): 18
